Data: EP2262764B1, “NOVEL N-BENZYLAMIDE SUBSTITUTED DERIVATIVES OF 2-(ACYLAMIDO)ACETIC ACID AND 2-(ACYLAMIDO)PROPIONIC ACIDS: POTENT NEUROLOGICAL AGENTS” (The University of North Carolina At Chapel Hill, priority 2008, dated 2009)
Like-named read-outs stand apart in the source and are kept apart here.

Columns and labels:
[1] = test system: bi-phasic licking response; assay: formalin test (0.5% formalin into hind paw, bi-phasic licking response); format: in vivo, mouse; details: dose 16.0 (CH2C≡CH/H), 8.0 (CH3/N3), 20.0 (CH2C≡CH/N3) mg/kg
Method: Compounds of the present invention were active in treating pain in a formalin test carried out in accordance with standard techniques, as described in S. Hunskaar et al., J. Neurosci. Methods 14: 69-76 (1985). Briefly, 0.5% formalin is injected into the mouse hind paw to elicit a bi-phasic licking response, where the first acute phase is thought to correspond to the direct stimulation of peripheral fibers and the second (inflammatory) phase is caused by the release of inflammatory mediators.

[2] = test system: maximal electroshock (MES)-induced seizures; assay: maximal electroshock seizure (MES) test, mice ip; details: for ED50: Mus musculus, ip
Source text: The structure-activity relationship of functionalized amino acids (1).

neurologic toxicity [3] = assay: neurologic toxicity (Tox), rotorod test, mice ip; details: for TD50: mouse, in vivo, ip, Tox, TD50, Mice (ip)
[4] = test system: maximal electroshock (MES)-induced seizures; assay: maximal electroshock seizure (MES) test, rat po; details: for ED50: Rattus norvegicus, po; for MES, ED50 / PI: Rat (po); for PI: PI = TD50/ED50
neurologic toxicity [5] = assay: neurologic toxicity (Tox), rat po; format: in vivo; details: for TD50: in vivo
6 Hz seizure model = assay: 6 Hz seizure model, mice ip
[6] = neurologic toxicity (Tox), rat po; format: in vivo; details: in vivo, time in hours in brackets
[7] = neurologic toxicity (Tox), rotorod test, mice ip; details: mouse, in vivo, ip, Tox, TD50, Mice (ip); time in hours in second brackets; [x; y] = between doses x and y
[8] = test system: maximal electroshock (MES)-induced seizures; details: rat, in vivo, po
[9] = read-out: MES ED50, values of the running text, mice (ip)
[10] = rotorod test, time of peak effect in hours in brackets in the cell
[11] = read-out: MES, ED50, Rat (po), time of peak effect in hours in brackets in the cell
[12] = read-out: MES, ED50, Mice (ip), time of peak effect in hours in brackets in the cell
[13] = time in hours in brackets in the cell
[14] = read-out: MES, ED50, Rat (po), time in hours in brackets
[15] = read-out: MES, ED50, Mice (ip), time in hours in second brackets, [x, y] = between doses x and y
[16] = read-out: MES, ED50, mice, intraperitoneally (ip), 95% confidence intervals in parentheses
[17] = Mice (ip), time in hours in second brackets, [x, y] = between doses x and y
[18] = time in hours in second brackets, [x, y] = between doses x and y

C#CCOC[C@@H](NC(C)=O)C(=O)NCc1ccc(N=[N+]=[N-])cc1 [(R)-8, (R)-N-(4-Azidobenzyl)-2-acetamido-3-(prop-2-ynyloxy)propanamide]
Area Under the Curve, % of Control ([1]; Acute phase): 58.28% | Area Under the Curve, Drug Tested ([1]; Acute phase): 119.9 | Area Under the Curve, % of Control ([1]; Inflammatory phase): 78.17% | Area Under the Curve, Drug Tested ([1]; Inflammatory phase): 414.3

CCOCC(NC(C)=O)C(=O)NCc1ccccc1 (racemic) [(R,S)-10]
ED50 [2, 9]: 17 mg/kg

C#CCOC[C@H](NC(C)=O)C(=O)NCc1ccc(N=C=S)cc1 [(S)-9, (S)-N-(4-Isothiocyanatobenzyl)-2-acetamido-3-(prop-2-ynyloxy)propanamide]
ED50 ([2]; read-out: MES, ED50): > 300 mg/kg | TD50 (neurologic toxicity [3]; [10]): > 300 mg/kg

C#CCOC[C@H](NC(C)=O)C(=O)NCc1ccccc1 [(S)-7, (S)-N-Benzyl-2-acetamido-3-(prop-2-ynyloxy)propanamide]
ED50 [4, 11]: > 30 mg/kg | ED50 [2, 12]: > 300 mg/kg | TD50 (neurologic toxicity [5]; [13]): > 30 mg/kg | TD50 (neurologic toxicity [3]; [10]): > 300 mg/kg

CC(=O)N[C@H](C(=O)NCc1ccccc1)c1ccccc1 [(S)-6]
ED50 ([2]; read-out: MES, ED50): > 300 mg/kg

CC(=O)NC(C)C(=O)NCc1ccccc1 (racemic) [(R,S)-4]
ED50 ([2]; read-out: MES, ED50): 77 mg/kg

COC[C@H](NC(C)=O)C(=O)NCc1ccc(N=[N+]=[N-])cc1 [(S)-5, (S)-N-(4-Azidobenzyl)-2-acetamido-3-methoxypropanamide, reference compound]
ED50 (6 Hz seizure model; Mus musculus, ip, read-out: 6Hz, ED50): ~100 mg/kg | ED50 [4, 14]: > 30 mg/kg | ED50 [2, 15]: 100 to 300 mg/kg | ED50 [2, 16]: > 25 mg/kg | TD50 (neurologic toxicity [5]; time in hours in brackets): > 30 mg/kg | Tox, TD50 (neurologic toxicity [3]; [17]): > 300 mg/kg

C#CCOC[C@@H](NC(C)=O)C(=O)NCc1ccccc1 [(R)-7, (R)-N-Benzyl-2-acetamido-3-(prop-2-ynyloxy)propanamide]
Area Under the Curve, % of Control ([1]; Acute phase): 48.42% | Area Under the Curve, Drug Tested ([1]; Acute phase): 142.9 | Area Under the Curve, % of Control ([1]; Inflammatory phase): 54.99% | Area Under the Curve, Drug Tested ([1]; Inflammatory phase): 468.3

C=CCOCC(NC(C)=O)C(=O)NCc1ccccc1 (racemic) [(R,S)-11]
ED50 [2, 9]: 30 to 100 mg/kg

CC(=O)NC(C(=O)NCc1ccccc1)c1ccccc1 (racemic) [(R,S)-6]
ED50 ([2]; read-out: MES ED50): 32 mg/kg | ED50 ([2]; read-out: MES, ED50): 32 mg/kg

O=C1NC(=O)C(c2ccccc2)(c2ccccc2)N1 [phenytoin, reference compound]
MES, ED50 ([4]; time in hours in brackets): 30 [4] mg/kg | ED50 ([4]; read-out: MES, ED50): 30 mg/kg | TD50 (neurologic toxicity [5]; [13]): > 3000 mg/kg

COC[C@@H](NC(C)=O)C(=O)NCc1ccc(OCc2cccc(F)c2)cc1 [(R)-3, (R)-2-Acetamido-N-(4-(3-fluorobenzyloxy)benzyl)-3-methoxypropanamide]
6Hz, ED50 (given as fraction) (6 Hz seizure model; Mice (ip), […], dose not given): 2/4 [0.25] | PI [4]: > 36 | PI ([2]; Mice (ip), PI = TD50/ED50): ∼9.3 | ED50 [2, 15]: 10 to 30 mg/kg | TD50 (neurologic toxicity [5]; time in hours in brackets): > 30 mg/kg | Tox, TD50 (neurologic toxicity [5]; time in hours in brackets): > 500 [0.5] mg/kg

C#CCOC[C@@H](NC(C)=O)C(=O)NCc1ccc(N=C=S)cc1 [(R)-9]
ED50 [4, 14]: > 30 mg/kg | ED50 [4, 11]: > 30 mg/kg | TD50 [6]: > 30 mg/kg | TD50 [7]: 68 mg/kg

CC(=O)N[C@@H](C)C(=O)NCc1ccccc1 [(S)-4]
ED50 ([2]; read-out: MES, ED50): 550 mg/kg

COC[C@@H](NC(C)=O)C(=O)NCc1ccc(N=[N+]=[N-])cc1 [(R)-5, (R)-N-(4-Azidobenzyl)-2-acetamido-3-methoxypropanamide, reference compound]
PI [4]: > 64 | ED50 [4, 14]: 3.9 mg/kg | Area Under the Curve, % of Control ([1]; Acute phase): 58.67% | Area Under the Curve, Drug Tested ([1]; Acute phase): 131.4 | Area Under the Curve, % of Control ([1]; Inflammatory phase): 106.22% | Area Under the Curve, Drug Tested ([1]; Inflammatory phase): 694.5 | TD50 (neurologic toxicity [5]; time in hours in brackets): > 250 mg/kg | TD50 (neurologic toxicity [3]; [18]): 46.2 mg/kg

CCCC(CCC)C(=O)O [valproate]
MES, ED50 ([4]; time in hours in brackets): 490 [0.5] mg/kg | ED50 ([4]; read-out: MES, ED50): 490 mg/kg | PI ([2]; Mice (ip), PI = TD50/ED50): 1.6 | PI ([2]; Mice (ip), protective index (TD50/ED50)): 1.6 | MES, ED50 [2, 17]: 270 [0.25] mg/kg | ED50 ([2]; read-out: MES, ED50): 270 mg/kg | PI [8]: 0.6

CCC1(c2ccccc2)C(=O)NC(=O)NC1=O [Phenobarbital, reference compound]
ED50 [4, 14]: 9.1 mg/kg | ED50 [4, 11]: 9 mg/kg | ED50 [2, 15]: 22 mg/kg | ED50 [2, 12]: 22 mg/kg | Tox, TD50 (neurologic toxicity [5]; time in hours in brackets): 61 [0.5] mg/kg | Tox, TD50 (neurologic toxicity [5]; [13]): 61 [0.5] mg/kg

C#CCOC[C@H](NC(C)=O)C(=O)NCc1ccc(N=[N+]=[N-])cc1 [(S)-8, (S)-N-(4-Azidobenzyl)-2-acetamido-3-(prop-2-ynyloxy)propanamide]
ED50 [4, 11]: > 30 mg/kg | ED50 [2, 12]: 163 mg/kg | TD50 (neurologic toxicity [5]; [13]): > 30 mg/kg | TD50 (neurologic toxicity [3]; [10]): > 300 mg/kg

COC[C@H](NC(C)=O)C(=O)NCc1ccc(OCc2cccc(F)c2)cc1 [(S)-3, (S)-2-Acetamido-N-(4-(3-fluorobenzyloxy)benzyl)-3-methoxypropanamide]
ED50 [2, 15]: > 300 mg/kg | TD50 (neurologic toxicity [3]; [18]): > 300 mg/kg

C#CCOC[C@@H](NC(C)=O)C(=O)NCc1ccccc1 [(R)-7]
ED50 [4, 14]: 16 mg/kg | ED50 [4, 11]: 8 mg/kg | ED50 [2, 15]: 10 to 30 mg/kg | ED50 [2, 12]: 16 mg/kg | TD50 [6]: > 500 mg/kg | TD50 [7]: 30 to 100 mg/kg

COC[C@@H](NC(C)=O)C(=O)NCc1ccc(COc2cccc(F)c2)cc1 [(R)-11]
ED50 [4, 14]: < 30 mg/kg | PI ([2]; Mice (ip), PI = TD50/ED50): ∼2.8 | ED50 [2, 15]: 3 to 10 mg/kg | Tox, TD50 (neurologic toxicity [5]; time in hours in brackets): > 30 [0.25 to 4.0] mg/kg | TD50 [7]: 10 to 30 mg/kg

COCC#Cc1ccc(CNC(=O)[C@@H](COC)NC(C)=O)cc1 [(R)-6, (R)-2-Acetamido-3-methoxy-N-(4-(3-methoxyprop-1-ynyl)benzyl)propanamide, reference compound]
PI [4]: > 30 | PI ([2]; Mice (ip), PI = TD50/ED50): ∼2.8 | ED50 [2, 15]: 3 to 10 mg/kg | ED50 [2, 16]: 26 mg/kg | TD50 (neurologic toxicity [5]; time in hours in brackets): < 30 mg/kg | Tox (death) (neurologic toxicity [3]; Mice (ip), observation printed in the Tox, TD50 column): Death at 100 | TD50 (neurologic toxicity [3]; [18]): 10 to 30 mg/kg

COC[C@@H](NC(C)=O)C(=O)NCc1ccc(C(F)(F)F)cc1 [(R)-10]
ED50 [4, 14]: < 30 mg/kg | PI ([2]; Mice (ip), PI = TD50/ED50): ∼3.1 | ED50 [2, 15]: 30 to 100 mg/kg | TD50 [6]: > 30 mg/kg | TD50 [7]: 100 to 300 mg/kg

C#CCOC[C@@H](NC(C)=O)C(=O)NCc1ccc(N=[N+]=[N-])cc1 [(R)-8]
ED50 [4, 14]: 45 mg/kg | ED50 [4, 11]: 12 mg/kg | ED50 ([2]; read-out: MES, ED50): 20 mg/kg | TD50 [6]: > 500 mg/kg | TD50 [7]: 100 to 300 mg/kg
